Assay results reported in patent publication US9540423B2, “Plant defensins and use in the treatment of proliferative diseases” (Balmoral Australia Pty Ltd, priority 2011, dated 2017).
Where two headings read alike, the source gives them in different places.

What was measured:
[1] = system: Aspergillus nidulans; settings: cited from earlier work
[2] = subcutaneous, intraperitoneal or intratumoural routes; previous studies; cited from earlier work
[3] = system: Verticillium dahliae; settings: cited from earlier work
[4] = system: normal human umbilical vein endothelial cells (HUVEC); assay: MTT cell viability assay, HUVEC; assay type: cell-based; settings: 48 h
Procedure: Tumour cells were seeded in quadruplicate into wells of a flat-bottomed 96-well microtitre plate (50 μL) at various densities starting at 2×10^6 cells/mL. Four wells containing complete culture medium alone were included in each assay as a background control. The microtitre plate was incubated overnight at 37° C. under a humidified atmosphere containing 5% CO2/95% air, prior to the addition of complete culture medium (100 μL) to each well and further incubated at 37° C. for 48 h. Optimum cell densities (30-50% confluency) for cell viability assays were determined for each cell line by light microscopy.
Tumour cells were seeded in a 96-well microtitre plate (50 μL/well) at an optimum density determined in the cell optimisation assay as above. Background control wells (n=8) containing the same volume of complete culture medium were included in the assay. The microtitre plate was incubated overnight at 37° C., prior to the addition of proteins at various concentrations and the plate was incubated for a further 48 h. […]
The effect of NoD173 on the viability of a tumour cell line and a normal human cell isolate was determined using a 3-(4,5-dimethyl-2-thiazolyl)-2,5-diphenyl-2H-tetrazolium bromide (MTT) in vitro cell culture viability assay. […]

[5] = system: Fusarium oxysporum f. sp. vasinfectum (Fov); settings: cited from earlier work
[6] = system: Leptosphaeria maculans; settings: cited from earlier work
[7] = system: Thielaviopsis basicola; settings: cited from earlier work
[8] = system: Phoma betae; settings: cited from earlier work

## NaD1: plant defensin isolated from floral tissue of Nicotiana alata; model class II defensin (RECKTESNTFPGICITKPPCRKACISEKFTDGHCSKILRRCLCTKPC; UniProt Q8GTM0 26-72, looked up)
[1]; 1 μM
  Growth inhibition of A. nidulans: approximately 65%
[1]; 5 μM
  Growth inhibition of A. nidulans: more than 80%
[2]
  Dose at which toxicity was shown: above 1 mg/kg body weight
[3]; 1 μM
  Growth inhibition of V. dahliae: approximately 65%
[3]; 5 μM
  Growth inhibition of V. dahliae: more than 80%
[4]
  IC50: 15 µM
[5]; 1 μM
  Growth inhibition of Fov: 50%
[5]; 5 μM
  Growth inhibition of Fov: more than 80%
[6]; 1 μM
  Growth inhibition of L. maculans: 50%
[6]; 5 μM
  Growth inhibition of L. maculans: more than 80%
[7]; 1 μM
  Growth inhibition of T. basicola: approximately 65%
[7]; 5 μM
  Growth inhibition of T. basicola: more than 80%

## Rs-AFP2: antifungal protein (plant defensin) isolated from radish seeds, 51 amino acids (QKLCQRPSGTWSGVCGNNNACKNQCIRLEKARHGSCNYVFPAHKCICYFPC; UniProt P30230 30-80, looked up)
[8]
  Concentration inhibiting growth of Phoma betae: 1 µg/mL
